From patent US7091220B2, “Substituted indole Mannich bases” (Gruenenthal GmbH, priority 1999, dated 2006)

test system: α2-subtype of the human α-adrenergic receptor; assay: SPA test, affinity for the α2-subtype of the human α-adrenergic receptor; assay type: binding; conditions: not given
Method: Wide-ranging testing of the indole Mannich bases according to the invention for their activity was carried out by the conventional high throughput screening methods, such as are described in John P. Devlin, High Throughput Screening, 1997, Marcel Dekker Inc. They are introduced here as a reference and are therefore part of the disclosure.
The action of the indole Mannich bases according to the invention is determined in particular by the affinity for the N-methyl-D-aspartate (NMDA) receptor family, for (α-adrenergic receptors and opioid receptors.
The compounds of the general formula 1 according to the invention investigated are suitable as ligands for the α2-subtype of the human α-adrenergic receptor, which is of importance for pain sensation.
The affinity of the compounds according to the invention for this α2-subtype of the α-adrenergic receptor has been determined with the aid of the SPA test such as is described in John P. Devlin, High Throughput Screening, Marcel Dekker Inc. 1997, pages 307 to 316. This literature is introduced herewith as a reference and is therefore part of the disclosure. The affinities of the compounds according to the invention were in each case determined at a concentration of 10 μM.

Compared with `CN(C)C(c1ccc(F)cc1Cl)c1c[nH]c2cccc([N+](=O)[O-])c12` (centres unmarked) [Example 64, [(2-Chloro-4-fluoro-phenyl)-(4-nitro-1H-indol-3-yl)-methyl]-dimethyl-amine], `CN(C)C(c1ccccc1Br)c1cn(C)c2ccccc12` (centres unmarked) [Example 58, [(2-Bromo-phenyl)-(1-methyl-1H-indol-3-yl)-methyl]-dimethyl-amine] is higher in “% Inhibition of α2 (humans), 10 μM” value: 48% for the first, 82% for the second.

Compared with “5-Benzyloxy-3-(phenyl-pyrrolidin-yl-methyl)-1H-indole [Example 50]”, `Cc1cccc2[nH]cc(C(c3ccc(F)cc3Cl)N(C)C)c12` (centres unmarked) [Example 65, [(2-Chloro-4-fluoro-phenyl)-(4-methyl-1H-indol-3-yl)-methyl]-dimethyl-amine] is lower in “% Inhibition of α2 (humans), 10 μM” value: 51% for the first, 42% for the second.

Going from `CN(C)C(c1cccc(Br)c1)c1cn(C)c2ccccc12` (centres unmarked) [Example 60, [(3-Bromo-phenyl)-(1-methyl-1H-indol-3-yl)-methyl]-dimethyl-amine] to `CN(C)C(c1cc(Br)ccc1F)c1cn(C)c2ccccc12` (centres unmarked) [Example 52, [(5-Bromo-2-fluoro-phenyl)-(1-methyl-1H-indol-3-yl)-methyl]-dimethyl-amine], the “% Inhibition of α2 (humans), 10 μM” value falls from 66% to 37%.

Compared with `Cc1[nH]c2ccccc2c1C(c1ccc(C(C)(C)C)cc1)N(C)C` (centres unmarked) [Example 61, [(4-tert-Butyl-phenyl)-(2-methyl-1H-indol-3-yl)-methyl]-dimethyl-amine], `Cc1[nH]c2ccc([N+](=O)[O-])cc2c1C(c1ccccc1)N(C)C` (centres unmarked) [Example 15, Dimethyl-[(2-methyl-5-nitro-1H-indol-3-yl)-phenylmethyl]-amine] is lower in “% Inhibition of α2 (humans), 10 μM” value: 63% for the first, 40% for the second.

Compared with `CN(C)C(c1cccc(Cl)c1)c1cn(C)c2ccccc12` (centres unmarked) [Example 69, [(3-Chloro-phenyl)-(1-methyl-1H-indol-3-yl)-methyl]-dimethyl-amine], `CN(C)C(c1c(F)cccc1Cl)c1c(-c2ccc(Cl)cc2)[nH]c2ccccc12` (centres unmarked) [Example 67, {(2-Chloro-6-fluoro-phenyl)-[2-(4-chloro-phenyl)-1H-indol-3-yl]-methyl}-dimethyl-amine] is lower in “% Inhibition of α2 (humans), 10 μM” value: 75% for the first, 36% for the second.

Compared with `CN(C)C(c1ccc(Cl)cc1Cl)c1cn(C)c2ccccc12` (centres unmarked) [Example 71, [(2,4-Dichloro-phenyl)-(1-methyl-1H-indol-3-yl)-methyl]-dimethyl-amine], `CN(C)C(c1cccc(Cl)c1Cl)c1cn(C)c2ccccc12` (centres unmarked) [Example 70, [(2,3-Dichloro-phenyl)-(1-methyl-1H-indol-3-yl)-methyl]-dimethyl-amine] is higher in “% Inhibition of α2 (humans), 10 μM” value: 50% for the first, 63% for the second.

With `CCc1cccc2c(C(c3cccc(Br)c3)N(C)C)c[nH]c12` (centres unmarked) [Example 59, [(3-Bromo-phenyl)-(7-ethyl-1H-indol-3-yl)-methyl]-dimethyl-amine] the “% Inhibition of α2 (humans), 10 μM” value was 37%.

same assay, conditions: 10 µM

Going from `CN(C)C(c1c(F)cccc1Cl)c1cn(C)c2ccccc12` (centres unmarked) [Example 68, [(2-Chloro-6-fluoro-phenyl)-(1-methyl-1H-indol-3-yl)-methyl]-dimethyl-amine] to `CN(C)C(c1c(F)cccc1Cl)c1c(-c2ccccc2)[nH]c2ccccc12` (centres unmarked) [Example 66, [(2-Chloro-6-fluoro-phenyl)-(2-phenyl-1H-indol-3-yl)-methyl]-dimethyl-amine], the “% Inhibition of α2 (humans), 10 μM” value falls from 88% to 44%.

First: CN(C)C(c1c(F)cccc1Cl)c1cn(C)c2ccccc12 (centres unmarked) [Example 56, [(2-Chloro-6-fluoro-phenyl)-(1-methyl-1H-indol-3-yl)-methyl]-dimethyl-amine]
Second: CN(C)C(c1c(F)cccc1Cl)c1c(-c2ccccc2)[nH]c2ccccc12 (centres unmarked) [Example 53, [(2-Chloro-6-fluoro-phenyl)-(2-phenyl-1H-indol-3-yl)-methyl]-dimethylamine]
The “% Inhibition of α2 (humans), 10 μM” value of the first is higher: 39% for the first, 38% for the second.
